The record followed here is patent publication US20080015186A1, “PHARMACEUTICAL CO[…] C[…] CANNABINOID RECEPTOR ANTAGONIST AND AN ANTIPSYCHOTIC” (SANOFI-AVENTIS, priority 2005, published 2008).

The assay can be described thus: Effect of rimonabant on the weight gain induced by treatment with risperidone (cumulative weight gain and feed consumption). The class given is in vivo. Conditions: female Wistar rats on fat-rich feed, risperidone 0.3 mg/kg i.p., rimonabant 1 mg/kg p.o. (or vehicle p.o.). As for the experimental part: Female Wistar rats, fed with a fat-rich feed for the three days preceding the treatment and during the treatment, are used.
Groups of 15 animals receive each day: • group 1: risperidone (0.3 mg/kg, i.p.) and the vehicle (p.o.); • group 2: risperidone (0.3 mg/kg, i.p.) and rimonabant (1 mg/kg, p.o.); • group 3: the two vehicles (i.p. and p.o.);
On the ninth day of the treatment, the cumulative weight gain over the nine days of treatment and the feed consumption on day 9 are measured.

Each structure is given as a SMILES string.

Consider `Cc1nc2n(c(=O)c1CCN1CCC(c3noc4cc(F)ccc34)CC1)CCCC2` [risperidone], for which the “Cumulative weight gain over the nine days of treatment” value (15/group, daily dosing for 9 days) is 23.5 g ± 1.7. For the same molecule, the “Mean feed intake on the ninth day” value (day 9 of treatment) is 15.0 g ± 0.7. Besides, for the setting “nine days of treatment”, the “Number of rats/group (%) with a weight gain <20 g” value is given as 20% and the “Number of rats/group (%) with a weight gain >20 g” value was found to be 80%.
